# Laboratory results: the supplement of paper PMC3974653
# Counter-ions that a name gives are not always drawn.
# System: MTT (mouse pheochromocytoma)
# Assay: IC50 of cell viability (ATP content)
# Details: (24 or 48 h)
# In short: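 Library compounds were tested at 8 final concentrations (0.5 nM to 46 µM) on MTT mouse pheochromocytoma cells for 24 or 48 hrs, with readout by CellTiter-Glo ATP luminescence. Signals were normalised with positive-control wells at 100% and DMSO wells at 0%. IC50 values were obtained by a four-parameter logistic fit.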
row,Structure (SMILES),IC50 of cell viability [µM]
1,C1C\N=C(\NC(C2CC2)C3CC3)O1 [RILMENIDINE],> 46
2,O=C(O)COc1ccccc1 [Phenoxy acetic acid],> 46
3,COc1cc2c(cc1OC)CC(=O)N(CCCN(C)C[C@H]1Cc3cc(OC)c(OC)cc31)CC2 [IVABRADINE HYDROCHLORIDE],> 46
4,c1ccc2nc(N3CCNCC3)ccc2c1 [QUIPAZINE],> 46
5,CCN(CC)CCOC(=O)C(C)(c1ccccc1)c1ccccc1 [APROFENUM],> 46
6,NC1=NC(=O)N2CC12 (stereo unspecified) [IMEXON],> 46
7,CCOP(=O)(OCC)O/C(=C/Cl)c1ccc(Cl)cc1Cl [CLOFENVINFOSUM],> 46
8,CN1CCC\C(C1)=C(/C2=CC=CS2)C3=CC=CS3 [TIPEPIDINE HIBENZATE],> 46
9,[K+].C[C@H](OC1=CC=CC=C1)C(=O)N[C@H]2[C@@H]3SC(C)(C)[C@@H]([N@@]3C2=O)C([O-])=O [Phenethicillin potassium salt],> 46
10,COc1ccccc1OC[C@H](O)COC(N)=O [Methocarbamol],> 46
11,CCCOC(=O)Cc1ccc(OCC(=O)N(CC)CC)c(OC)c1 [Propanidid],> 46
12,CCCCNc1ccc(C(=O)OCCN(C)C)cc1,> 46
13,CC1(C)O[C@@H]2C[C@H]3[C@@H]4C[C@H](F)C/5=C/C(=O)/C=C\[C@]5(C)[C@@]4(F)[C@@H](O)C[C@]3(C)[C@@]2(O1)C(=O)CO [Fluocinolone acetonide],> 46
14,CC(N)C12CC3CC(CC(C3)C1)C2 (stereo unspecified) [Rimantadine hydrochloride],> 46
15,Cc1ncc(C[n+]2csc(CCOP(=O)(O)O)c2C)c(N)n1 [MONOPHOSPHOTHIAMINUM],> 46
16,NNC(=O)CP(=O)(c1ccccc1)c1ccccc1 [Fosenazida],> 46
17,c1csc(C2(N3CCCCC3)CCCCC2)c1 [TENOCYCLIDINUM],> 46
18,N#CCCN.N#CCCN.O=C(O)/C=C/C(=O)O [3-Aminopropionitrile fumarate],> 46
19,CCN(CCO)CCCC(C)Nc1ccnc2cc(Cl)ccc12 (stereo unspecified) [HYDROXYCHLOROQUINE SULFATE],> 46
20,"c1ccc2occc2c1 [2,3-Benzofuran]",> 46
21,O=C(NCCN1CCOCC1)c1ccc(Cl)cc1 [MOCLOBEMIDE],> 46
22,C#C[C@]1(O)CC[C@H]2[C@@H]3CCC4=C/C(=N\O)CC[C@H]4[C@@H]3CC[C@]21CC [NORELGESTROMIN],> 46

row,Structure (SMILES),IC50 of cell viability [µM]
1,Nc1nc(N)nc(-c2cc(Cl)ccc2Cl)n1 [IRSOGLADINE MALEATE],> 46
2,CCNC(=O)NCCCOc1cccc(CN2CCCCC2)c1 [DALCOTIDINE],> 46
3,CCCCCCCCCCCCCCCCCC(=O)[O][Al]([OH])[OH] [Aluminum monostearate],> 46
4,CCCN(CC)[C@@H](CC)C(=O)Nc1c(C)cccc1C [Etidocaine],> 46
5,COc1ccc(C(CN(C)C)C2(O)CCCCC2)cc1 (stereo unspecified) [VENLAFAXINE],> 46
6,C#C[C@]1(O)CC[C@H]2[C@H]3[C@H](CC[C@@]21C)C1=C(CC(=O)CC1)C[C@@H]3C [TIBOLONE],> 46
7,Nc1nc(O)c2c(CCc3ccc(C(=O)N[C@H](CCC(=O)[O-])C(=O)[O-])cc3)c[nH]c2n1 [PEMETREXED],> 46
8,CC(=O)OCC(=O)C1(O)CCC2C3CCC/4=C/C(=O)CCC4(C)C3C(O)CC12C (stereo unspecified) [Hydrocortisone acetate],> 46
9,CC(C)[N+]1(C)[C@@H]2CC[C@H]1CC(OC(=O)C(CO)c1ccccc1)C2 (stereo partly specified) [Ipratropium bromide monohydrate],> 46
10,O=C(O)COCCN1CCN([C@@H](c2ccccc2)c2ccc(Cl)cc2)CC1 [Cetirizine dihydrochloride],> 46
11,O=C1[O][Pt]2([NH]C3CCCCC3[NH]2)[O]C1=O (stereo unspecified) [OXALIPLATIN],> 46
12,FCOC(C(F)(F)F)C(F)(F)F [SEVOFLURANE],> 46
13,[Na+].[Na+].CC1(C)[C@H](CC[C@@]2(C)[C@H]1CC[C@@]3(C)[C@H]2C(=O)\C=C4\[C@H]5C[C@@](C)(CC[C@]5(C)CC[C@]34C)C([O-])=O)OC(=O)CCC([O-])=O [Carbenoxolone disodium salt],> 46
14,NC(=S)N[S+](=O)([O-])c1ccc(N)cc1 [SULFATOLAMIDE],> 46
15,CN(C)CCc1ccc(O)cc1 [HORDENINE],> 46
16,COCc1c(C(C)C)nc(C(C)C)c(/C=C/[C@@H](O)C[C@@H](O)CC(=O)[O-])c1-c1ccc(F)cc1 [CERIVASTATIN SODIUM],> 46
17,C[C@H](CCCC(C)(C)O)[C@H]1CC[C@H]2[C@@H]3CC=C4C[C@@H](O)CC[C@]4(C)[C@H]3CC[C@]12C [25-Hydroxycholesterol],> 46
18,CN1CCN(C2=Nc3cc(F)ccc3Cc3ccccc32)CC1 [Fluperlapine],> 46
19,Nc1nc(N)c(-c2ccccc2)s1 [AMIPHENAZOLUM],> 46
20,C[NH+](C)CCC(c1ccccc1)c1cccc[nH+]1.O=C([O-])CC(=O)[O-] (stereo unspecified) [Pheniramine maleate],> 46
21,"CCN(CC)CCO[C@H]1CC[C@@]2(C)C(=CC[C@@H]3C2CC[C@]2(C)C(=O)CCC32)C1 (stereo in doubt) [3b-(2-Diethylaminoethoxy)androst-5-en-17-one, HCl]",> 46

# The next lines start with the values.
row,IC50 of cell viability [µM],Structure (SMILES)
1,> 46,CN1[C@@H](CC(=O)c2ccccc2)CCC[C@H]1C[C@H](O)c1ccccc1 [LOBELINE]
2,> 46,CC(=O)O[C@H]1C[C@@H]2CC[C@@H]3[C@H](CC[C@]4(C)[C@H](OC(C)=O)[C@@H](N5CC[N+](C)(C)CC5)C[C@@H]34)[C@@]2(C)C[C@@H]1N1CC[N+](C)(C)CC1 [Pipecuronium]
3,> 46,NC1CCN(c2cccc(Cl)n2)CC1
4,> 46,COCC(=O)Nc1c(I)c(C(=O)NC[C@@H](O)CO)c(I)c(C(=O)N(C)C[C@@H](O)CO)c1I [Iopromide]
5,> 46,CCCCCCCCCCCCCCCC(=O)OCCC1CCN(CCCN2c3ccccc3Sc3ccc([S+](=O)([O-])N(C)C)cc32)CC1 [Pipothiazine palmitate]
6,> 46,CCC(CCC(C)C1CCC2C3C\C=C/4CC(O)CC[C@@]4(C)C3CC[C@@]12C)C(C)C (stereo partly drawn) [beta-SITOSTEROL]
7,> 46,C[C@@H](O)[C@H]1C(=O)N2C(C(=O)O)=C(S[C@@H]3CN[C@H](CN[S+](N)(=O)[O-])C3)[C@H](C)[C@H]12 [DORIPENEM HYDRATE]
8,> 46,[NH2][Pt]([NH2])([Cl])[Cl] [cis-Dichlorodiamine platinum]
9,> 46,C1CN\C(N1)=C/C2=CC=CC3=C2C=CC=C3 [Nephazoline]
10,> 46,NC(=O)Oc1ccc(Cc2ccccc2)cc1 [Difenano]
11,> 46,OC(CCCN1CCCCC1)(c1ccccc1)c1ccccc1 [Diphenidol]
12,> 46,CC(=O)OC1CC2CCC1(C)C2(C)C (stereo unspecified) [BORNYL ACETATE]
13,> 46,CC(O)C(O)[C@H]1CNc2nc(N)nc(O)c2N1 (stereo partly specified) [Sapropterin]
14,> 46,CC1(Cn2ccnn2)[C@H](C(=O)O)N2C(=O)C[C@H]2[S+]1(=O)[O-] (stereo partly specified) [Tazobactam sodium]
15,> 46,Nc1ccc([S+](=O)([O-])NC(=O)c2ccccc2)cc1 [Sulfabenzamide]
16,> 46,CCCC(C(=O)OCCN(CC)CC)(c1ccccc1)c1ccccc1.Cl [PROADIFEN HYDROCHLORIDE]
17,> 46,CC1CCC(C(C)C)C(O)C1 (stereo unspecified) [MENTHOL]
18,> 46,CC(C[N+](C)(C)C)OC(N)=O (stereo not drawn) [CARBAMYL-beta-METHYLCHOLINE]
19,> 46,CCC(=O)[C@@]1(C)[C@H](C)C[C@@H]2[C@@H]3CC\C4=C\C(=O)\C=C/[C@@]4(C)[C@H]3[C@H](O)C[C@@]12C [Rimexolone]
20,> 46,Cc1cccc(C)c1OCC(=O)N[C@@H](Cc1ccccc1)[C@@H](O)C[C@H](Cc1ccccc1)NC(=O)[C@H](C(C)C)N1CCCNC1=O [LOPINAVIR]
21,> 46,CCN(CC)CCOC(=O)[C@@H](Cc1cccc2ccccc12)C[C@H]1CCCO1 [Nafronyl oxalate]
22,> 46,CCCCC(=O)[O-] [Valeric acid]
23,> 46,OC(=O)C(CC/1=C/C(=O)NC2=CC=CC=C12)NC(=O)C3=CC=C(Cl)C=C3 (stereo unspecified) [REBAMIPIDE]
24,> 46,O=C(O)c1ccccc1C(=O)Nc1ccc([S+](=O)([O-])Nc2nccs2)cc1 [PHTHALYLSULFATHIAZOLE]
25,> 46,CC(C)=CCCC(C)=CCCC(C)=CCC/C=C(\C)CC/C=C(\C)CCC=C(C)C (stereo in doubt) [Squalene]
26,> 46,CCC1NC(=O)C(NC(=O)c2ncccc2O)C(C)OC(=O)C(c2ccccc2)NC(=O)C2CC(=O)CCN2C(=O)C(Cc2ccccc2)N(C)C(=O)C2CCCN2C1=O (stereo unspecified) [VIRGINIAMYCIN]
27,> 46,COc1cc(C(=S)N2CCOCC2)cc(OC)c1OC [Tritiozina]
28,> 46,O=C(CO)[C@@H](O)[C@H](O)[C@@H](O)CO [L-(-)-Sorbose]
